Key:
[1] = test system: BN-472 rat mammary carcinoma; experiment: BN-472 rat mammary carcinoma model, single agent and combination with cytotoxics (Example 11); details: for anti-tumor effects (tumor size development, final tumor weight): once weekly administration i.v.
[2] = molecular target: T1, Urokinase (sc-urokinase) (Homo sapiens, UniProt P00749); experiment: In vitro inhibition of urokinase (chromogenic substrate, Dixon Ki); assay type: biochemical; details: in vitro inhibition of urokinase, 25° C, pH 8.0, 5% ethanol; read-out: Ki
T1 construct: purchased Ribosepharm GmbH, Haan, Germany
Procedure: To determine the inhibitory activity, 200 μl of Tris buffer (0.05 mol/l, containing the inhibitor, 0.154 mol/l NaCl, 5% ethanol pH 8.0), 25 μl of substrate (Pefachrome UK or Bz-βAla-Gly-Arg-pNA in H2O; Pentapharm Ltd., Basle, Switzerland) and 50 μl of sc-urokinase (Ribosepharm GmbH, Haan, Germany) were incubated at 25° C. After 3 min the reaction was stopped by adding 25 μl of acetic acid (50%), and the absorption at 405 nm was determined by means of a Microplate Reader (MR 5000, Dynatech, Denkendorf, Germany). Ki values were determined according to Dixon by linear regression using a computer program. The Ki values are the mean values of at least three determinations with a standard deviation of less than 25%.

With `O=c1[nH]cc(F)c(=O)[nH]1` [Example 5-FU, 5-fluorouracil, reference compound] the “anti-tumor effects (tumor size development, final tumor weight)” value (“anti-tumor effects” below) [1] was “Dose-dependent anti-tumor effects”.

`CCOC(=O)N1CCN(C(=O)C(Cc2cccc(C(=N)N)c2)NS(=O)(=O)c2c(C(C)C)cc(C(C)C)cc2C(C)C)CC1.Cl` (centres unmarked) [D,L, Nα-(2,4,6-triisopropylphenylsulfonyl)-3-amidino-(D,L)-phenylalanine 4-ethoxycarbonylpiperazide hydrochloride] showed a Ki [2] of 960 nM.

`CC(=O)O[C@H]1C(=O)[C@@]2(C)[C@H]([C@H](OC(=O)c3ccccc3)[C@]3(O)C[C@H](OC(=O)[C@H](O)[C@@H](NC(=O)c4ccccc4)c4ccccc4)C(C)=C1C3(C)C)[C@]1(OC(C)=O)CO[C@@H]1C[C@@H]2O` [paclitaxel, reference compound] was tested, and the “anti-tumor effects” value [1] was “Dose-dependent anti-tumor effects”.

With `COc1cccc2c1C(=O)c1c(O)c3c(c(O)c1C2=O)C[C@@](O)(C(=O)CO)C[C@@H]3O[C@H]1C[C@H](N)[C@@H](O)[C@H](C)O1` [epirubicin, reference compound] the “anti-tumor effects” value [1] was “Dose-dependent anti-tumor effects” and the thymus atrophy ([1]; rat, in vivo) was “thymus atrophy”.

Reference: US7342018B2, “Urokinase inhibitors and uses thereof” (Wilex AG, priority 1998, dated 2008)
